Earlier results, collected in US20230404077A1, “METHODS AND FORMULATIONS FOR CONTROLLING FLEA INFESTATIONS” (EctoGuard, LLC, priority 2022, published 2023).

Columns and labels:
fleas [1] = conditions: cats
fleas [2] = conditions: systemic / administered orally
fleas [3] = conditions: cats, topical

Substance | commercial oral dose for effective control (≥90% mortality) (fleas [1]) | activity relative to spinosad (fleas [2]) | topically active dose, corresponding extrapolated value (fleas [3])
spinosad | 45 to 90 mg/kg | – | –
spinetoram | – | 5.5 times | around 10 mg/kg
